Legend:
S. mansoni adult worms = test: In vitro laid egg (IVLE) production by S. mansoni adult worm pairs, 72 h; assay type: cell-based, Schistosoma mansoni; conditions: 0.0024–10 μM
Experimental: For the evaluation of anti-schistosomal activity on the adult stage of the parasite, 7-wk old worms were transferred into 48 well tissue culture plates (1–3 worm pairs/well, in duplicate). […] DMSO (0.5%) and praziquantel (10 μM in 0.5% DMSO) were also included as negative and positive control treatments. Treated adult worms were incubated for 72 h in a humidified environment containing 5% CO2 at 37 °C. Parasite motility after compound treatment was assessed by a digital image processing-based system (WormassayGP2), modified after Wormassay. Following compound-parasite co-incubation, eggs were collected, fixed in formalin (10% v/v formaldehyde) and enumerated aiming to collect further information on any compound-induced effects on parasite fecundity and IVLE production.

HepG2 cells = test: HepG2 MTT cytotoxicity assay
Summary of the method: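 HepG2 cells seeded at 2 × 10^4 cells/well, cultured at 37 °C in 5% CO2. Viability by MTT, formazan absorbance at 570 nm. The cytotoxicity value served for computing compound selectivity index.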

[1] = test system: Juvenile S. mansoni worms; test: S. mansoni juvenile worm screen (motility score, propidium iodide uptake), 72 h; assay type: cell-based, Schistosoma mansoni; conditions: for EC50: 3 week juvenile S. mansoni; for PI pos: juvenile worms, Fig. S4
Description: Mice (Mus musculus HsdOLa:TO - Tuck Ordinary; Envigo, UK) were used for the mammalian-specific propagation of the S. mansoni life cycle. Experimental animals were infected with 4000 or 180 S. mansoni cercariae/mouse and perfused three- or seven-weeks post-infection to obtain S. mansoni juvenile or adult worms, respectively. Preparation steps following perfusion have been described previously. Briefly, the parasite material was washed three times with pre-warmed adult worm media (DMEM (Gibco, Paisley, UK) supplemented with 10% (v/v) Fetal Calf Serum (FCS, Gibco, Paisley, UK), 1% (v/v) L-glutamine (Gibco, Paisley, UK) and an antibiotic mixture (150 Units/ml penicillin and 150 μg/ml streptomycin; Gibco, UK)) to remove residual host contamination and incubated in a humidified environment containing 5% CO2 at 37 °C for at least 1 h.
Juvenile worms were distributed in a 96-well tissue culture plate (n = 20–25 individuals/well) containing 200 μl/well. Compounds were added to each treatment well at a concentration range of 10–0.156 μM. Negative (1.25% DMSO) and positive (15 μM PZQ and 15 μM AUR in 1.25% DMSO) controls were also included in each drug screen. Treated juvenile worms were incubated for 72 h in a humidified environment containing 5% CO2 at 37 °C. Compound-induced phenotype and motility effects were quantified using an adapted version of the WHO-TDR scoring system (in summary: 0 = dead, 1 = movement of the suckers only and slight contraction of the body, 2 = movement at the anterior and posterior regions only, 3 = full body movement but sluggish and 4 = normal movement). Additionally, differential uptake of propidium iodide (PI, P1304MP, Sigma-Aldrich, UK) was used to quantify worm viability as previously described. In brief, after 15 min incubation with 2 μg/ml PI, the parasite cultures were imaged under both bright-field and fluorescent settings (PI detection, 562 and 624 excitation and emission wavelengths, respectively) using an ImageXpressXL high content imager (Molecular Devices, UK). Enumeration of PI positive and negative juvenile worms was manually performed across all parasites within the well and the percentage of PI positive parasite was calculated per well.

in vitro = conditions: human, TK6 lymphoblastoid cells
Experimental: The in vitro micronucleus (MN) assay was employed for the assessment of chromosome damage. Human, p53 competent, lymphoblastoid TK6 cells (Cat. No. 95111735) were used in this study and obtained from the European Collection of Authenticated Cell Cultures (ECACC)). RPMI 1640 (Gibco, Paisley, UK) culture media supplemented with 1% penicillin/streptomycin (100 U/ml Penicillin and 100 μg/ml Streptomycin), 10% heat inactivated horse serum (Gibco, Paisley, UK), 1% L-glutamine (Gibco, Paisley, UK) and hygromycine-B was used for TK6 cell culture. Cells were incubated at 37 °C in a humidified atmosphere of 5% (v/v) CO2.

Compound | Effect on IVLE production compared with PZQ (S. mansoni adult worms) | Toxicity on HepG2 in words (HepG2 cells; 24 h) | Selectivity Index (SI) Adult worms (HepG2 cells; HepG2 CC50 versus adult worm EC50) | Selectivity Index (SI) Somula (HepG2 cells; HepG2 CC50 versus schistosomula EC50) | EC50 ([1]; 72 h) | Concentration down to which parasite death of juvenile worms was induced ([1]; 72 h, supported by propidium iodide staining) | EC50 ([1]; Schistosoma mansoni, 72 h) | PI pos ([1]; 0.156 µM) | PI pos ([1]; 0.312 µM) | PI pos ([1]; 0.625 µM) | PI pos ([1]; 1.25 µM) | PI pos ([1]; 2.50 µM) | PI pos ([1]; 5 µM) | PI pos ([1]; 10 µM) | CC50 at 24 h (in vitro)
O=[N+]([O-])c1ccc2nc(Nc3cc(C(F)(F)F)ccc3F)c(Nc3cc(C(F)(F)F)ccc3F)nc2c1 [Compound 33, N2, N3-bis(2-fluoro-5-(trifluoromethyl)phenyl)-6-nitroquinoxaline-2,3-diamine] | more potent than PZQ | low toxicity | 17.87 | 0.66 | – | – | – | – | – | – | – | – | – | – | –
O=[N+]([O-])c1ccc2nc(Nc3ccc(Cl)c(Cl)c3)c(Nc3ccc(Cl)c(Cl)c3)nc2c1 [Compound 22, N^2, N^3-bis(3,4-dichlorophenyl)-6-nitroquinoxaline-2,3-diamine] | – | – | – | – | 201 nM | 1.25 µM | 200 nM | 0% | 10% | 20% | 100% | 100% | 100% | 100% | 9360 nM

From paper PMC8626775, “Anti-schistosomal activities of quinoxaline-containing compounds: From hit identification to lead optimisation” (European Journal of Medicinal Chemistry, 2021)
